Compound in assay [1]: CNC(=O)c1cc(Oc2ccc(NC(=O)Nc3ccc(Cl)c(C(F)(F)F)c3)cc2)ccn1 [SORAFENIB]
Briefly: surviving fraction relative to DMSO-only wells; higher = less growth inhibition. The conditions noted are these: exposure time: 5 days. The procedure, abridged:
(§1)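 Five days of continuous inhibitor exposure, at 0.5, 1, 5, 10, 50, 100, 500 and 1000 nM, followed a 24-hour period after log-phase tumour cell lines were seeded at 250–500 cells per well in 384-well plates. Surviving fraction was derived from CellTiter-Glo luminescence relative to the median of DMSO-only wells. Plates were read after 10 minutes at room temperature, and lines screened three times were kept only if replicate Pearson r >0.7 and median Z' >0.3.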

Compound in assay [2]: O=C(c1cc(Cc2n[nH]c(=O)c3ccccc23)ccc1F)N1CCN(C(=O)C2CC2)CC1 [OLAPARIB]
The description is as above. The conditions noted are these: exposure time: 5 days. An outline of the steps: as §1

± gives the standard deviation of the averaged measurements.

For HCC70 BREAST, the surviving fraction was 1.01 ± 0.069 in assay [1] (0.5 nM); 0.976 ± 0.082 in assay [1] (1 nM); 1.1 ± 0.057 in assay [1] (5 nM); 1.01 ± 0.032 in assay [1] (10 nM); 1.22 ± 0.019 in assay [1] (50 nM); 1.34 ± 0.081 in assay [1] (100 nM). The surviving fraction in assay [1] (500 nM) turned out to be 1.33 ± 0.032; in assay [1] (1000 nM) it was 1.25 ± 0.16; in assay [2] (0.5 nM), 1.15 ± 0.043; in assay [2] (1 nM) it was 1.08 ± 0.038; in assay [2] (5 nM), 1.13 ± 0.082; in assay [2] (10 nM) it was 1.15 ± 0.049. Besides, the surviving fraction in assay [2] (50 nM) turned out to be 1.1 ± 0.16; in assay [2] (100 nM) it was 1.05 ± 0.064; in assay [2] (500 nM) it was 0.983 ± 0.069; in assay [2] (1000 nM) it was 0.928 ± 0.12.
With G292 BONE, the surviving fraction in assay [1] (0.5 nM) was 0.973 ± 0.051; in assay [1] (1 nM), 0.967 ± 0.034; in assay [1] (5 nM), 1.01 ± 0.02; in assay [1] (10 nM) it was 1.02 ± 0.04; in assay [1] (50 nM) it was 1.01 ± 0.058; in assay [1] (100 nM), 0.96 ± 0.016. Besides, the surviving fraction in assay [1] (500 nM) was determined as 0.918 ± 0.025; in assay [2] (0.5 nM), 1.01 ± 0.014; in assay [2] (1 nM), 1.01 ± 0.037; in assay [2] (5 nM), 1.01 ± 0.016; in assay [2] (10 nM), 1.02 ± 0.017; in assay [2] (50 nM), 0.977 ± 0.022. The surviving fraction in assay [2] (100 nM) came to 0.971 ± 0.046; in assay [2] (500 nM), 0.872 ± 0.037; in assay [2] (1000 nM) it was 0.831 ± 0.02.
Regarding HCC38 BREAST, the surviving fraction in assay [1] (0.5 nM) was 1.19 ± 0.19; in assay [1] (5 nM) it was 1.27 ± 0.14; in assay [1] (10 nM) it was 1.18 ± 0.16; in assay [1] (50 nM), 1.26 ± 0.29; in assay [1] (100 nM), 1.32 ± 0.21; in assay [1] (500 nM) it was 1.29 ± 0.26. For the same test system, the surviving fraction in assay [1] (1000 nM) was determined as 1.22 ± 0.26; in assay [2] (0.5 nM), 1.13 ± 0.12; in assay [2] (1 nM), 1.04 ± 0.039; in assay [2] (5 nM) it was 1.05 ± 0.26; in assay [2] (10 nM), 1.05 ± 0.22; in assay [2] (50 nM) it was 0.656 ± 0.17. Besides, the surviving fraction in assay [2] (100 nM) worked out at 0.6 ± 0.094; in assay [2] (500 nM), 0.441 ± 0.098; in assay [2] (1000 nM), 0.432 ± 0.074.
With HMT3552 BREAST, the surviving fraction is 1.1 in assay [1] (0.5 nM); 1.03 in assay [1] (1 nM); 1.33 in assay [1] (50 nM); 1.29 in assay [1] (100 nM); 1.36 in assay [1] (500 nM); 1.29 in assay [1] (1000 nM). For the same test system, the surviving fraction in assay [2] (0.5 nM) turned out to be 0.96; in assay [2] (1 nM), 0.909; in assay [2] (5 nM), 0.92; in assay [2] (10 nM), 0.865; in assay [2] (50 nM), 1.07; in assay [2] (100 nM), 0.858. Besides, the results for the surviving fraction in assay [2] (500 nM) and in assay [2] (1000 nM) were 0.913 and 0.742, respectively.
With HS578T BREAST, the surviving fraction worked out at 0.671 ± 0.16 in assay [1] (0.5 nM); 0.862 ± 0.077 in assay [1] (1 nM); 0.766 ± 0.015 in assay [1] (5 nM); 0.776 ± 0.018 in assay [1] (10 nM); 0.831 ± 0.15 in assay [1] (50 nM); 0.794 ± 0.034 in assay [1] (100 nM). Besides, the surviving fraction in assay [2] (0.5 nM) worked out at 0.886 ± 0.076; in assay [2] (1 nM) it was 0.911 ± 0.043; in assay [2] (5 nM), 0.937 ± 0.14; in assay [2] (10 nM) it was 0.853 ± 0.12; in assay [2] (50 nM), 0.837 ± 0.079; in assay [2] (100 nM) it was 0.87 ± 0.061. Also, the surviving fraction in assay [2] (500 nM) was 0.713 ± 0.093; in assay [2] (1000 nM), 0.705 ± 0.066.
In the case of HMLE3 BREAST, the surviving fraction is 0.899 ± 0.033 in assay [1] (0.5 nM); 1 ± 0.0095 in assay [1] (1 nM); 1.08 ± 0.084 in assay [1] (5 nM); 1.1 ± 0.045 in assay [1] (10 nM); 1.3 ± 0.044 in assay [1] (50 nM); 1.41 ± 0.045 in assay [1] (100 nM). For the same test system, the surviving fraction in assay [1] (500 nM) came to 1.41 ± 0.021; in assay [1] (1000 nM), 1.41 ± 0.079; in assay [2] (0.5 nM) it was 1.01 ± 0.015; in assay [2] (1 nM) it was 0.976 ± 0.039; in assay [2] (5 nM), 1.09 ± 0.097; in assay [2] (10 nM), 1.06 ± 0.057. Also, the surviving fraction in assay [2] (50 nM) was found to be 0.972 ± 0.042; in assay [2] (100 nM), 0.962 ± 0.12; in assay [2] (500 nM) it was 0.911 ± 0.07; in assay [2] (1000 nM), 0.835 ± 0.072.
